How the values were obtained:
[1] = biological target: T1, dopamine receptors (Rattus norvegicus, UniProt P61169); experiment: Receptor binding assay: in vitro block of 3H-spiperone binding, rat striatal membranes; parameters: species or system Male Sprague-Dawley rats; settings: rat striatum; 3H-spiperone 0.4 nM; 10 minutes at 37° C.
T1 construct: The striata were dissected, pooled and homogenized in 50 mM Tris-HCl buffer (pH 7.6); from tissue; host or cells: striata of male Sprague-Dawley rats, membrane fraction
Experimental: The assays have been carried out using a cell harvester equipment. The incubations were made in quadruplicate, each well containing membrane suspension (2.5 mg/0.5 ml), ^3 H-spiperone (0.4 nM) and the test compound in a final volume of 0.5 ml. After incubation for 10 minutes at 37° C., the contents of the wells were rapidly filtered and washed on Whatman GF/B filters using the Cell harvester. The specific binding was defined as the difference of ligand bound in the […] of 1 μM (+)-butaclamol. The test results are expressed as IC50.

[2] = test system: apomorphine syndrome; settings: claimed in prior art; cited from earlier work
[3] = test system: DA receptors linked to the nigro neostriatal DA system (apomorphine stereotypies); experiment: Reduction of apomorphine-induced stereotypies in the rat; assay type: in vivo, Male Sprague-Dawley rats; settings: i.p.; 60 min prior to apomorphine hydrochloride 1 mg/kg s.c.; 60 min observation
Text: (§1) There are presently several techniques available to study DA receptor blockage in the brain in vivo. One method is based on the ability of antipsychotic drugs to block the behavioral effects induced by the DA agonist apomorphine in the rat. Several studies indicate an excellent correlation between the in vivo DA receptor blockage as measured in the apomorphine test and therapeutic efficacy of different antipsychotic drugs. Apomorphine produces in rats and other species a characteristic syndrome consisting of repetitive movements (stereotypies) and hyperactivity which appear to be due to activation of postsynaptic DA receptors in the brain (J. Pharm. Pharmacol. 19, 627, 1967; J. Neurol. transm. 40, 97-113, 1977). […]
Directly after injection, the animals were placed in the cages, one in each cage. […] The strength of the stereotype was scored on a 0-3 scale as follows:
(§2) In the second system the number of animals displaying hyperactivity caused by apomorphine were scored. […] The ED50 were calculated from log dose-response curves by the method of least squares from 4-6 dose levels with 6-8 animals per dose level.

[4] = test system: DA receptors in subcortical mesolimbic structures (apomorphine hyperactivity); experiment: Reduction of apomorphine-induced hyperactivity in the rat; assay type: in vivo, Male Sprague-Dawley rats; settings: i.p.; 60 min prior to apomorphine hydrochloride 1 mg/kg s.c.; 60 min observation
Text: as §1, with “1977). The stereotypies (chewing, licking, biting) appear mainly to be induced via activation of DA receptors linked to the nigro neostriatal DA system (J. Psychiat. Res., 11, 1, 1974) whereas the increased locomotion (hyperactivity) mainly appears to be due to activation of DA receptors in subcortical mesolimbic structures (nucleus olfactorium, nucleus accumbens) i.e. the mesolimbic DA system. (J. Pharm. Pharmacol. 25, 1003, 1973).” for “1977).”
as §2

T1 sequence (P61169 whole entry): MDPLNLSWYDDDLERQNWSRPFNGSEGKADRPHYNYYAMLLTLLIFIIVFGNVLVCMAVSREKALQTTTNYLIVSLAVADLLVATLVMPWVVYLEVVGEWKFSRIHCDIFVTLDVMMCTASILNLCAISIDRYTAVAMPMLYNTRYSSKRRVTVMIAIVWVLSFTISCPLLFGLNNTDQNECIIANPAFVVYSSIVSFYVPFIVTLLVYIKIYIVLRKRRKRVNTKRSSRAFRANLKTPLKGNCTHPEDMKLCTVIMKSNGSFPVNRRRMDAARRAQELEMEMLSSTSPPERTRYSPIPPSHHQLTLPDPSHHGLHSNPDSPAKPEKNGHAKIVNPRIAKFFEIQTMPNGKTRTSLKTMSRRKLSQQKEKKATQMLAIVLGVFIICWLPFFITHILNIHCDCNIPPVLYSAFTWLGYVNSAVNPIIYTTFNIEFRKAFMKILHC

Row | SMILES | IC50 [1] [nM] | further results
1 | CCN1CCC[C@H]1CNC(=O)c1c(O)ccc(OC)c1OC | 8.8 | 
2 | CCN1CCCC1CNC(=O)c1c(O)c(Cl)cc(Cl)c1OC (centres unmarked) |  | antagonism/inhibition of the apomorphine syndrome in the rat [2]: potent inhibitors
3 | C=CCN1CCC[C@H]1CNC(=O)c1c(O)c(Br)cc(OC)c1OC | 2.3 | 
4 | CCN1CCC[C@H]1CNC(=O)c1c(O)c(Cl)cc(Cl)c1OC |  | Reduction of stereotypies ED50 [3]: 2.4 µmol/kg; Reduction of hyperactivity ED50 [4]: 0.11 µmol/kg
5 | CCN1CCC[C@H]1CNC(=O)c1c(OC)ccc(Br)c1OC [Remoxipride] |  | antagonism/inhibition of the apomorphine syndrome in the rat [2]: potent antagonist

Further compounds by falling IC50 [1], results first:

Row | IC50 [1] [nM] | SMILES | further results
6 | 2.4 | CCCc1cc(OC)c(OC)c(C(=O)NC[C@@H]2CCCN2CC)c1O | 
7 | 1.4 | CCN1CCC[C@H]1CNC(=O)c1c(O)c(Br)cc(OC)c1OC | 
8 | 1.3 | CCc1cc(OC)c(OC)c(C(=O)NC[C@@H]2CCCN2CC)c1O | 
9 | 1.3 | COc1cc(Br)c(O)c(C(=O)NC[C@H]2CCCN2Cc2ccc(F)cc2)c1OC | 
10 | 0.3 | CCN1CCC[C@H]1CNC(=O)c1c(O)c(Cl)cc(OC)c1OC | 

— patent US5240957A, “Oxysalicylamido derivatives” (Astra Lakemedel Akteibolag, priority 1984, dated 1993)
